Laboratory results: US9399790B2, “Stable NAD/NADH derivatives” (Roche Diabetes Care, Inc., priority 2006, dated 2016)

Key:
[1] = biological target: T1, glucose dehydrogenase (GlucDH) (Bacillus subtilis, UniProt P12310); test: Glucose dehydrogenase (GlucDH) activity assay with NAD derivative as cofactor; format: biochemical; conditions: for U/ml: GlucDH 0.002 mg/ml (NAD)
Protocol: In order to examine the role of pNAD as a cofactor for glucose dehydrogenase (GlucDH), a glucoseDH activity assay in 0.1 M Tris/0.2 M NaCl (pH 8.5) buffer was carried out. The concentration of glucose was 80 mM. pNAD and NAD concentrations of 0.05-0.5 mM were used. To this, 10 mg/ml (pNAD) or 0.002 mg/ml (NAD) [83 or 0.017 μM respectively] GlucDH was added. The assay was carried out at room temperature and the enzymatic reaction was monitored by recording absorption spectra at regular time intervals. The values shown in table 1 refer to an absorption measurement after 4 min.
A glucose dehydrogenase activity assay for cNAD compared to NAD was carried out as described under B) for pNAD. For this purpose glucose dehydrogenase concentrations of […] and 0.002 mg/ml (NAD) [0.83 and 0.017 μM respectively] were used.

[2] = Investigation of the stability of pNAD (incubation at 50° C., HPLC); format: physicochemical; conditions: 0.15 M KPO4, 1 M NaCl buffer (pH 7.0)
Protocol: In order to examine the stability of pNAD compared to NAD, the same amounts of NAD and pNAD were each taken up in 0.15 M KPO4, 1 M NaCl buffer (pH 7.0) and incubated at 50° C. The decomposition of NAD and/or pNAD were monitored by HPLC.

[3] = biological target: T1, glucose dehydrogenase (GlucDH); test: Glucose dehydrogenase (GlucDH) activity assay with NAD derivative as cofactor; format: biochemical; conditions: 0.05 mM (p)NAD; 80 mM glucose; 0.1 M Tris/0.2 M NaCl pH 8.5; room temperature; absorption after 4 min; GlucDH 0.02 mg/ml (NAD), 10 mg/ml (pNAD)
[4] = Examination of the stability of carbaNAD (stressing in solution, HPLC); format: physicochemical; conditions: 10 mM solution, pH 8, 0.1 M potassium phosphate buffer, 8° C. and 37° C., after 0.25, 75 and 175 h
Protocol: A 10 mM solution of carbNAD and/or NAD is stressed at pH 8 in 0.1 M potassium phosphate buffer. The content is determined by means of HPLC chromatography after 0.25, 75 and 175 h.
Buffer A: 100 mM KHPO4+10 mM tetrabutylammonium hydrogen sulfate, pH 6.9 buffer B: buffer A+acetonitrile 1:1 flow rate 1.0 ml/min detection: 254 nm […]
gradient: in 40 min to 35% buffer B, hold for 2 min and then change to 0% buffer A within 3 min.

[5] = 0.05 mM (p)NAD, relative to NAD = 100, 80 mM glucose, pH 8.5, after 4 min
[6] = 0.4 mM (p)NAD, relative to NAD = 100, 80 mM glucose, pH 8.5, after 4 min
[7] = 0.05 mM (c)NAD, relative to NAD = 100
[8] = 0.1 mM (c)NAD, relative to NAD = 100

T1 sequence (P12310 whole entry): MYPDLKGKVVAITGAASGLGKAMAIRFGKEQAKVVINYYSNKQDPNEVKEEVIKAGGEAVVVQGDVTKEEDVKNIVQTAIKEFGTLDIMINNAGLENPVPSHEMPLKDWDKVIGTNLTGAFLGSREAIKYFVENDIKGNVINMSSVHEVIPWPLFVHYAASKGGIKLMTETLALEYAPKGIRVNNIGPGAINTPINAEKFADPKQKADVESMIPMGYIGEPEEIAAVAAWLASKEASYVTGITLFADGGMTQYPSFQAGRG

| Compound | activity at 50 µM [1, 5] | U/ml ([1]; 0.4 mM (p)NAD, 80 mM glucose, 0.1 M Tris/0.2 M NaCl pH 8.5, room temperature, absorption after 4 min, 10 mg/ml (pNAD)) | activity at 400 µM [1, 6] | stability (percentage areas of (p)NAD compared to time zero, HPLC) [2] | U/ml [3] | activity at 50 µM [1, 7] | activity at 100 µM [1, 8] | U/ml ([1]; 0.05 mM (c)NAD, assay as for pNAD, 0.1 mg/ml (cNAD)) | % activity [1, 7] | U/ml ([1]; 0.1 mM (c)NAD, assay as for pNAD, 0.1 mg/ml (cNAD)) | % activity [1, 8] | stability (occurrence of decomposition products, HPLC area percentages) [4] |
| --- | --- | --- | --- | --- | --- | --- | --- | --- | --- | --- | --- | --- |
| NC(=O)c1ccc[n+]([C@@H]2CN[C@H](COP(=O)([O-])OP(=O)(O)OC[C@H]3O[C@@H](n4cnc5c(N)ncnc54)[C@H](O)[C@@H]3O)C2)c1 [pNAD, Pyrrolidinyl-NAD] | 3e-05% | 0.0024 U/ml | 0.00015% | very stable compared to NAD | 0.00017 U/ml |  |  |  |  |  |  |  |
| NC(=O)c1ccc[n+]([C@@H]2O[C@H](COP(=O)([O-])OP(=O)(O)OC[C@H]3O[C@@H](n4cnc5c(N)ncnc54)[C@H](O)[C@@H]3O)[C@@H](O)[C@H]2O)c1 [NAD, nicotinamide adenine dinucleotide, reference compound] | 100% |  | 100% |  |  | 100% | 100% |  |  |  |  |  |
| NC(=O)c1ccc[n+]([C@@H]2C[C@H](COP(=O)([O-])OP(=O)(O)OC[C@H]3O[C@@H](n4cnc5c(N)ncnc54)[C@H](O)[C@@H]3O)[C@@H](O)[C@H]2O)c1 [cNAD, carbaNAD] |  |  |  |  |  |  |  | 2.7 U/ml | 0.63% | 5.3 U/ml | 0.95% | very stable compared to NAD |
